# US11173151B2, “Substituted triazole derivatives and uses thereof” (BAYER AKTIENGESELLSCHAFT, priority 2017, dated 2021)
# Like-named read-outs stand apart in the source and are kept apart here.
# Legend:
# [1] = target: T1, human V2 receptor (Homo sapiens, UniProt P30518); assay: Cellular in vitro assay for determining vasopressin receptor activity, V2 receptor cell line (CHO, CRE-luciferase); type: cell-based; conditions: CHO cell line transfected with human V2 receptor, [Arg8]-vasopressin at EC50 concentration, read-out: IC50 hV2
# T1 construct: expressed in transfected cells; host or cells: CHO K1 (ATCC) expressing firefly luciferase under a CRE-responsive promoter
# [2] = target: T2, human V1a receptor (Homo sapiens, UniProt P37288); assay: Cellular in vitro assay for determining vasopressin receptor activity, V1a receptor cell line (CHO, aequorin luminescence); type: cell-based; conditions: for IC50: CHO cell line transfected with human V1a receptor, [Arg]-vasopressin at EC50 concentration, read-out: IC50 hV1a; for ratio IC50 hV2/hV1a: selectivity ratio IC50 hV2 / IC50 hV1a
# T2 construct: expressed in transfected cells; host or cells: CHO K1 (ATCC), also stably transfected with a modified aequorin
# Summary of the method: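 IC50 from inhibition of [Arg]-vasopressin (EC50 concentration)-evoked aequorin luminescence in CHO K1 cells, with 10-min compound pretreatment.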
# T1 sequence (P30518 whole entry): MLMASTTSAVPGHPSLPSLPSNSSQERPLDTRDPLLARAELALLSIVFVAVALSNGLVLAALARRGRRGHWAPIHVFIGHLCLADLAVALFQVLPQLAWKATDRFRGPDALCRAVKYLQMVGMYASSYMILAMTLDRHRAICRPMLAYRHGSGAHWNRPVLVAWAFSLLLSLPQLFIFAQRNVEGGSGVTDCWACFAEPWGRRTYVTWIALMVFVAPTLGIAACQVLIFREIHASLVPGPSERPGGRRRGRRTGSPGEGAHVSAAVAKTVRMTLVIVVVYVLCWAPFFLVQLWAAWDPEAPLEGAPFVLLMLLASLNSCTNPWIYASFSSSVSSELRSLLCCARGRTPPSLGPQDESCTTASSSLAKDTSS
# T2 sequence (P37288 whole entry): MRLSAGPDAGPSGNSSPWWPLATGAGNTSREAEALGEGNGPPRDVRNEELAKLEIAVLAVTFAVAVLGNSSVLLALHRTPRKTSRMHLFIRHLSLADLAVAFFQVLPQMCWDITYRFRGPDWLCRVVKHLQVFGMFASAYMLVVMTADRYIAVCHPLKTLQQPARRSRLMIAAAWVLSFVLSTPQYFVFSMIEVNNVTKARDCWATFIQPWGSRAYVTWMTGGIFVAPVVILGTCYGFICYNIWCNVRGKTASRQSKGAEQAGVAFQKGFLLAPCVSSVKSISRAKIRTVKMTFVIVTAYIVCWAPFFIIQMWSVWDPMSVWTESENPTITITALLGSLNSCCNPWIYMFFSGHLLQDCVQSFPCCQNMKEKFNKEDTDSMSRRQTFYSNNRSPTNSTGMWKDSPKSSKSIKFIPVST
Compound,IC50 [1],IC50 [2],ratio IC50 hV2/hV1a [2],IC50 ([1]; 3 hours)
"O=C(N[C@H]1C[C@H]1F)c1cccnc1-n1nc(Cn2nc(-c3ccc(Cl)cc3)n(C[C@H](O)C(F)(F)F)c2=O)nc1C(=O)N1CCS(=O)(=O)CC1 (racemic) [Example 533, 2-{3-({3-(4-Chlorophenyl)-5-oxo-4-[(2S)-3,3,3-trifluoro-2-hydroxypropyl]-4,5-dihydro-1H-1,2,4-triazol-1-yl}methyl)-5-[(1,1-dioxidothiomorpholin-4-yl)carbonyl]-1H-1,2,4-triazol-1-yl}-N-[2-fluorocyclopropyl]pyridine-3-carboxamide]",3.18 µM,0.146 µM,21.8,–
"NC(=O)[C@@H]1CCCN1C(=O)c1ccccc1-n1cnc(Cn2nc(-c3ccc(Cl)cc3)n(C[C@H](O)C(F)(F)F)c2=O)n1 [Example 195, 1-{2-[3-({3-(4-Chlorophenyl)-5-oxo-4-[(2S)-3,3,3-trifluoro-2-hydroxypropyl]-4,5-dihydro-1H-1,2,4-triazol-1-yl}methyl)-1H-1,2,4-triazol-1-yl]benzoyl}-L-prolinamide]",–,0.104 µM,23.0,2.39 µM
"O=C(c1cccc(Cl)c1-n1cnc(Cn2nc(-c3ccc(Cl)cc3)n(C[C@@H](O)C(F)(F)F)c2=O)n1)N1CCC(F)(F)C1 [Example 398, 2-[(1-{2-Chloro-6-[(3,3-difluoropyrrolidin-1-yl)carbonyl]phenyl}-1H-1,2,4-triazol-3-yl)methyl]-5-(4-chlorophenyl)-4-[(2R)-3,3,3-trifluoro-2-hydroxypropyl]-2,4-dihydro-3H-1,2,4-triazol-3-one]",22 µM,0.44 µM,50.0,–
"CC1CCC(C)N1C(=O)c1ccccc1-n1cnc(Cn2nc(-c3ccc(Cl)cc3)n(C[C@H](O)C(F)(F)F)c2=O)n1 (mixture of isomers) [Example 328, 5-(4-Chlorophenyl)-2-[(1-{2-[(2,5-dimethylpyrrolidin-1-yl)carbonyl]phenyl}-1H-1,2,4-triazol-3-yl)methyl]-4-[(2S)-3,3,3-trifluoro-2-hydroxypropyl]-2,4-dihydro-3H-1,2,4-triazol-3-one]",–,0.00795 µM,270.4,2.15 µM
"O=C(NCC(F)(F)F)c1ccncc1-n1nc(Cn2nc(-c3ccc(Cl)cc3)n(C[C@H](O)C(F)(F)F)c2=O)nc1C(=O)N1CCS(=O)(=O)CC1 [Example 518, 3-{3-({3-(4-Chlorophenyl)-5-oxo-4-[(2S)-3,3,3-trifluoro-2-hydroxypropyl]-4,5-dihydro-1H-1,2,4-triazol-1-yl}methyl)-5-[(1,1-dioxidothiomorpholin-4-yl)carbonyl]-1H-1,2,4-triazol-1-yl}-N-(2,2,2-trifluoroethyl)pyridine-4-carboxamide]",0.48 µM,0.955 µM,0.5,–
"O=C(NC1CC1F)c1cccc(Cl)c1-n1cnc(Cn2nc(-c3ccc(Cl)cc3)n(C[C@H](O)C(F)(F)F)c2=O)n1 (stereo partly drawn) [Example 373, 3-Chloro-2-[3-({3-(4-chlorophenyl)-5-oxo-4-[(2S)-3,3,3-trifluoro-2-hydroxypropyl]-4,5-dihydro-1H-1,2,4-triazol-1-yl}methyl)-1H-1,2,4-triazol-1-yl]-N-[2-fluorocyclopropyl]benzamide]",–,0.00475 µM,216.8,1.03 µM
"CC1(NC(=O)c2ccncc2-n2nc(Cn3nc(-c4ccc(Cl)cc4)n(C[C@H](O)C(F)(F)F)c3=O)nc2C(=O)N2CCS(=O)(=O)CC2)CC1 [Example 521, 3-{3-({3-(4-Chlorophenyl)-5-oxo-4-[(2S)-3,3,3-trifluoro-2-hydroxypropyl]-4,5-dihydro-1H-1,2,4-triazol-1-yl}methyl)-5-[(1,1-dioxidothiomorpholin-4-yl)carbonyl]-1H-1,2,4-triazol-1-yl}-N-(1-methylcyclopropyl)pyridine-4-carboxamide]",0.885 µM,6.25 µM,0.1,–
"CN1CCC(N(C)C(=O)c2ccccc2-n2cnc(Cn3nc(-c4ccc(Cl)cc4)n(C[C@H](O)C(F)(F)F)c3=O)n2)C1 (mixture of isomers) [Example 274, 2-[3-({3-(4-Chlorophenyl)-5-oxo-4-[(2S)-3,3,3-trifluoro-2-hydroxypropyl]-4,5-dihydro-1H-1,2,4-triazol-1-yl}methyl)-1H-1,2,4-triazol-1-yl]-N-methyl-N-[1-methylpyrrolidin-3-yl]benzamide]",–,0.022 µM,438.6,9.65 µM
"O=C1CN(c2ccncc2-n2cnc(Cn3nc(-c4ccc(Cl)cc4)n(C[C@H](O)C(F)(F)F)c3=O)n2)CCN1 [Example 5, 4-{3-[3-({3-(4-Chlorophenyl)-5-oxo-4-[(2S)-3,3,3-trifluoro-2-hydroxypropyl]-4,5-dihydro-1H-1,2,4-triazol-1-yl}methyl)-1H-1,2,4-triazol-1-yl]pyridin-4-yl}piperazin-2-one]",–,0.18 µM,16.7,3 µM

# More lines, now with the values ahead:
IC50 [1],IC50 [2],ratio IC50 hV2/hV1a [2],IC50 ([1]; 3 hours),Compound
–,0.0026 µM,82.7,0.215 µM,"O=C(Nc1ccc(F)cc1)c1ccccc1-n1cnc(Cn2nc(-c3ccc(Cl)cc3)n(C[C@H](O)C(F)(F)F)c2=O)n1 [Example 310, 2-[3-({3-(4-Chlorophenyl)-5-oxo-4-[(2S)-3,3,3-trifluoro-2-hydroxypropyl]-4,5-dihydro-1H-1,2,4-triazol-1-yl}methyl)-1H-1,2,4-triazol-1-yl]-N-(4-fluorophenyl)benzamide]"
32 µM,0.06 µM,533.3,–,"CC1(C)CN(C(=O)c2ncccc2-n2cnc(Cn3nc(-c4ccc(Cl)cc4)n(C[C@@H](O)C(F)(F)F)c3=O)n2)CCO1 [Example 464, 5-(4-Chlorophenyl)-2-[(1-{2-[(2,2-dimethylmorpholin-4-yl)carbonyl]pyridin-3-yl}-1H-1,2,4-triazol-3-yl)methyl]-4-[(2R)-3,3,3-trifluoro-2-hydroxypropyl]-2,4-dihydro-3H-1,2,4-triazol-3-one]"
–,0.00565 µM,23.0,0.13 µM,"Cc1ccc(CNC(=O)c2ccccc2-n2cnc(Cn3nc(-c4ccc(Cl)cc4)n(C[C@H](O)C(F)(F)F)c3=O)n2)o1 [Example 209, 2-[3-({3-(4-Chlorophenyl)-5-oxo-4-[(2S)-3,3,3-trifluoro-2-hydroxypropyl]-4,5-dihydro-1H-1,2,4-triazol-1-yl}methyl)-1H-1,2,4-triazol-1-yl]-N-[(5-methylfuran-2-yl)methyl]benzamide]"
4.4 µM,0.21 µM,21.0,–,"O=C(NCC1CC1)c1ncccc1-n1cnc(Cn2nc(-c3ccc(Cl)cc3)n(C[C@@H](O)C(F)(F)F)c2=O)n1 [Example 459, 3-[3-({3-(4-Chlorophenyl)-5-oxo-4-[(2R)-3,3,3-trifluoro-2-hydroxypropyl]-4,5-dihydro-1H-1,2,4-triazol-1-yl}methyl)-1H-1,2,4-triazol-1-yl]-N-(cyclopropylmethyl)pyridine-2-carboxamide]"
–,0.00501 µM,51.4,0.258 µM,"O=C(NCC(F)(F)F)c1ccccc1-n1cnc(Cn2nc(-c3ccc(Cl)cc3)n(C[C@H](O)C(F)(F)F)c2=O)n1 [Example 174, 2-[3-({3-(4-Chlorophenyl)-5-oxo-4-[(2S)-3,3,3-trifluoro-2-hydroxypropyl]-4,5-dihydro-1H-1,2,4-triazol-1-yl}methyl)-1H-1,2,4-triazol-1-yl]-N-(2,2,2-trifluoroethyl)benzamide]"
–,0.17 µM,388.2,66 µM,CCn1cc(C(=O)Nc2ncccc2-n2cnc(Cn3nc(-c4ccc(Cl)cc4)n(C[C@H](O)C(F)(F)F)c3=O)n2)cn1 [Example 112]
–,0.013 µM,38.7,0.503 µM,"O=C(Nc1cccnc1-n1cnc(Cn2nc(-c3ccc(Cl)cc3)n(C[C@H](O)C(F)(F)F)c2=O)n1)C1(F)CC1 [Example 57, N-{2-[3-({3-(4-Chlorophenyl)-5-oxo-4-[(2S)-3,3,3-trifluoro-2-hydroxypropyl]-4,5-dihydro-1H-1,2,4-triazol-1-yl}methyl)-1H-1,2,4-triazol-1-yl]pyridin-3-yl}-1-fluorocyclopropanecarboxamide]"
–,0.052 µM,28.8,1.5 µM,O=C(Nc1ncccc1-n1cnc(Cn2nc(-c3ccc(Cl)cc3)n(C[C@H](O)C(F)(F)F)c2=O)n1)c1ccc(F)cc1 [Example 121]
–,0.0265 µM,40.2,1.06 µM,O=C(Nc1ncccc1-n1cnc(Cn2nc(-c3ccc(Cl)cc3)n(C[C@H](O)C(F)(F)F)c2=O)n1)c1csnn1 [Example 100]
–,0.00665 µM,25.6,0.17 µM,"O=C(Nc1ccc(F)cn1)c1ccccc1-n1cnc(Cn2nc(-c3ccc(Cl)cc3)n(C[C@H](O)C(F)(F)F)c2=O)n1 [Example 211, 2-[3-({3-(4-Chlorophenyl)-5-oxo-4-[(2S)-3,3,3-trifluoro-2-hydroxypropyl]-4,5-dihydro-1H-1,2,4-triazol-1-yl}methyl)-1H-1,2,4-triazol-1-yl]-N-(5-fluoropyridin-2-yl)benzamide]"
–,0.0385 µM,61.0,2.35 µM,Cc1nonc1CC(=O)Nc1ncccc1-n1cnc(Cn2nc(-c3ccc(Cl)cc3)n(C[C@H](O)C(F)(F)F)c2=O)n1 [Example 138]
–,0.007 µM,40.5,0.283 µM,"O=C(Nc1cccnc1-n1cnc(Cn2nc(-c3ccc(Cl)cc3)n(C[C@H](O)C(F)(F)F)c2=O)n1)C1(C(F)(F)F)CC1 [Example 47, N-{2-[3-({3-(4-Chlorophenyl)-5-oxo-4-[(2S)-3,3,3-trifluoro-2-hydroxypropyl]-4,5-dihydro-1H-1,2,4-triazol-1-yl}methyl)-1H-1,2,4-triazol-1-yl]pyridin-3-yl}-1-(trifluoromethyl)cyclopropanecarboxamide]"
